# According to patent publication US20200148803A1, “POLYMERIZABLE MULTIFUNCTIONAL ANTIMICROBIAL QUATERNARY AMMONIUM MONOMERS, METHODS OF SYNTHESIS, AND USES THEREOF” (ADA Foundation, priority 2018, published 2020):
# Assays:
# [1] = Degree of vinyl conversion (DVC) by near infra-red spectra of copolymer beams; assay type: physicochemical
# Experimental: (§1) Experimental resin (UPE) was formulated from the commercially available monomers urethane dimethacrylate (UDMA, 50.91% w/w), polyethylene glycol extended urethane dimethacrylate (PEG-U, 18.18% w/w), and ethyl 2-(hydroxymethyl)acrylate (EHMA, 30.91% w/w). A conventional visible light initiator system comprised of camphorquinone (0.2% w/w) and ethyl-4-N,N-dimethylamino benzoate (4EDMAB, 0.8% w/w) was utilized. […] Copolymer specimens (beams) were prepared by depositing UPE (UPE resin control) and AM-UPE resins into glass molds (2 mm×2 mm×25 mm) and photopolymerizing them with a dental curing light (Triad 2000, Dentsply, Charlotte, N.C., USA) for 2 minutes from two sides. Copolymer specimens (pellets) were prepared by depositing UPE and AM-UPE resins into a stainless-steel mold (1 mm×16 mm), sandwiched between two sheets of Mylar film and two glass slides and photopolymerized in the same manner as the beam samples. Degree of vinyl conversion (DVC) of UPE and AM-UPE resins was determined utilizing beam samples by collecting the near infra-red (NIR) spectra (Nexus 670, ThermoFisher, Madison, Wis., USA) before and 24 h after polymerization and calculating the reduction in absorption band at 6165 cm^−1 corresponding to the vinyl (C═C—H) overtone signal. By maintaining a constant specimen thickness, a need for an invariant internal standard was eliminated. The DVC was calculated as: […]
# (§2) where Area(polymer) and Area(monomer) correspond to the areas under 6165 cm^−1 peaks after and before the polymerization, respectively. After DVC analysis, flexural strength (FS) and elastic modulus (E) of beam specimen were determined employing the Universal Testing Machine (Instron 5500R, Instron Corp., Canton, Mass., USA). The load was applied (at cross-head speed of 1 mm/min) to the center of a specimen positioned on a test device with supports 20 mm apart. The FS and E of the specimens (three replicates/experimental group) was calculated as instructed in the ISO4049:2009 document. Changes in hydrophilicity/hydrophobicity of UPE resins due to the introduction of AM monomers were assessed on pellet specimen by sessile drop contact angle (CA) measurements (drop shape analyzer DSA100, Krüss GmbH, Hamburg, Germany). Following the deposition of 4 μL water droplets on the resin pellets, the pellets were imaged after 1 min resting time with a camera at the points of intersection (three-phase contact points) between the drop contour and the projection of the surface (baseline). The CA water values were calculated employing the Krüss Advance software. At least four repetitive measurements were performed in each group. Analysis of variance (ANOVA) and Newman-Keuls multiple paired comparisons (at 95% confidence level) were used to analyze the experimental data as a function of resin composition and establish a statistical significance of differences between the experimental groups (WINKS 7.0.9, TexaSoft, Cedar Hills, Tex., USA).
# [2] = Sessile drop water contact angle (CA) on resin pellets; assay type: physicochemical
# Experimental: as §1, §2
# [3] = test system: mouse subcutaneous connective tissue fibroblasts (NCTC clone 929, CCL1); test: Direct contact cytotoxicity, LIVE/DEAD viability, CCL1 cells; assay type: cell-based
# [4] = test system: human gingival fibroblasts (HGF); test: Direct contact cytotoxicity, LIVE/DEAD viability, HGF cells; assay type: cell-based; settings: for effect of monomer concentration on HGF cell viability: two-fold serial dilutions, 24 h and 72 h
# Experimental: (§3) Immortalized human gingival fibroblasts (HGF) were purchased from Applied Biological Materials, Inc. (Richmond, British Columbia, Canada). […] For experiments, cells were obtained from a subconfluent stock culture.
# (§4) Direct contact cytotoxicity testing was conducted as previously described^7, 8. Briefly, cells were exposed to two-fold serial dilutions of AMadh series monomers or AMsil series monomers to approximate the maximum possible exposure, (Table 9). Table 9 illustrates biocompatibility testing using maximum possible monomer exposure (mmol/L), assuming 7% mass fraction in the restorative with a maximum of 2% leaching. To account for multiplicity and variable size of restorations, a two- and four-fold greater dilution was also included in the testing. After 24 and 72 h, cells were assessed for cell viability using the LIVE/DEAD® Viability/Cytotoxicity kit (Life Technologies, Corp., Grand Island, N.Y.). Cellular metabolic activity was subsequently assessed using the CellTiter® AQueous One Solution Reagent (Promega, Corp., Madison, Wis.). Negative controls were without the novel monomer and/or cells. Mean+standard error was obtained from five independent replicates tested in triplicate.
# CCL1 cells = test: Cellular metabolic activity (CellTiter AQueous One Solution Reagent), CCL1 cells; assay type: cell-based; settings: two-fold serial dilutions, 24 h and 72 h
# [5] = test system: human gingival fibroblasts (HGF); test: Cellular metabolic activity (CellTiter AQueous One Solution Reagent), HGF cells; assay type: cell-based; settings: two-fold serial dilutions, 24 h and 72 h
# Experimental: as §3, §4
# [6] = two-fold serial dilutions, 24 h and 72 h
structure (smiles),measurement,setting,value
"C=C(C)C(=O)OCC[N+](C)(C)CCC[Si](OC)(OC)OC.[I-] [AMsil1, N-(2-(methacryloyloxy)ethyl)-N,N-dimethyl-3-(trimethoxysilyl)propan-1-aminium iodide]",reduction of DVC relative to UPE resin control,[1]; 10 mass percent in UPE resin,approximately 27%
same,reduction of DVC relative to UPE resin control,[1]; 20 mass percent in UPE resin,~17%
same,CA,[2]; 10 mass % monomer in UPE resin,46.9±5.9 °
same,reduction of CA relative to UPE resin control,[2]; 10 mass % monomer in UPE resin,23%
same,effect on hydrophobic-hydrophilic properties of the copolymer,[2]; 10 mass percent in UPE resin,a shift towards the lower CA values
same,effect on hydrophobic-hydrophilic properties of the copolymer,[2]; 20 mass percent in UPE resin,maintained the hydrophobic-hydrophilic balance
same,dead CCL1 cells,"[3]; 0.07 mmol/L, 24 h",128.0 ± 27.1 % Control
same,live CCL1 cells,"[3]; 0.07 mmol/L, 24 h",156.8 ± 21.4 % Control
same,dead CCL1 cells,"[3]; 0.07 mmol/L, 72 h",134.0 ± 36.5 % Control
same,live CCL1 cells,"[3]; 0.07 mmol/L, 72 h",122.5 ± 5.6 % Control
same,dead CCL1 cells,"[3]; 0.13 mmol/L, 24 h",85.1 ± 11.2 % Control
same,live CCL1 cells,"[3]; 0.13 mmol/L, 24 h",145.1 ± 14.8 % Control
same,dead CCL1 cells,"[3]; 0.13 mmol/L, 72 h",140.3 ± 32.7 % Control
same,live CCL1 cells,"[3]; 0.13 mmol/L, 72 h",122.1 ± 8.5 % Control
same,dead CCL1 cells,"[3]; 0.26 mmol/L, 24 h",96.8 ± 15.5 % Control
same,live CCL1 cells,"[3]; 0.26 mmol/L, 24 h",154.5 ± 25.0 % Control
same,live CCL1 cells,"[3]; 0.26 mmol/L, 72 h",108.9 ± 18.6 % Control
same,dead CCL1 cells,"[3]; 0.52 mmol/L, 24 h",117.4 ± 27.1 % Control
same,live CCL1 cells,"[3]; 0.52 mmol/L, 24 h",147.3 ± 20.3 % Control
same,dead CCL1 cells,"[3]; 0.52 mmol/L, 72 h",124.6 ± 22.9 % Control
same,live CCL1 cells,"[3]; 0.52 mmol/L, 72 h",122.9 ± 11.1 % Control
same,dead CCL1 cells,"[3]; 1.04 mmol/L, 24 h",96.0 ± 16.2 % Control
same,live CCL1 cells,"[3]; 1.04 mmol/L, 24 h",157.9 ± 18.8 % Control
same,dead CCL1 cells,"[3]; 1.04 mmol/L, 72 h",128.8 ± 20.2 % Control
same,live CCL1 cells,"[3]; 1.04 mmol/L, 72 h",142.0 ± 6.5 % Control
same,dead CCL1 cells,"[3]; 2.09 mmol/L, 24 h",86.1 ± 11.7 % Control
same,live CCL1 cells,"[3]; 2.09 mmol/L, 24 h",152.5 ± 20.3 % Control
same,dead CCL1 cells,"[3]; 2.09 mmol/L, 72 h",147.6 ± 38.5 % Control
same,live CCL1 cells,"[3]; 2.09 mmol/L, 72 h",136.0 ± 7.2 % Control
same,dead CCL1 cells,"[3]; 4.17 mmol/L, 24 h",85.8 ± 13.1 % Control
same,live CCL1 cells,"[3]; 4.17 mmol/L, 24 h",161.3 ± 15.2 % Control
same,dead CCL1 cells,"[3]; 4.17 mmol/L, 72 h",91.6 ± 13.7 % Control
same,live CCL1 cells,"[3]; 4.17 mmol/L, 72 h",132.1 ± 6.7 % Control
same,dead CCL1 cells,"[3]; 8.34 mmol/L, 24 h",93.0 ± 15.4 % Control
same,live CCL1 cells,"[3]; 8.34 mmol/L, 24 h",149.6 ± 37.4 % Control
same,dead CCL1 cells,"[3]; 8.34 mmol/L, 72 h",106.8 ± 7.4 % Control
same,live CCL1 cells,"[3]; 8.34 mmol/L, 72 h",110.8 ± 12.3 % Control
same,"exposure time reduced the number of live CCL1 cells, fold difference of mean",[3]; 24 h vs 72 h,1.2 fold
same,effect of monomer concentration on CCL1 cell viability,[3]; [6],did not exert a statistical effect
same,"exposure time reduced HGF viability, difference of means","[4]; 24 h vs 72 h, independent of concentration",19.73
same,number of live HGFs,[4]; lower concentrations (≤0.13 mmol/L),decreased
same,effect of monomer concentration on HGF cell viability,[4],exerted a main effect
same,effect of monomer concentration on CCL1 metabolic activity,CCL1 cells,did not affect
same,effect on metabolic activity of HGF cells,[5],did not statistically affect the metabolic activity
"C=C(C)C(=O)OCC[N+](C)(C)CCCCCC(=O)O.[Br-] [AMadh1, 5-carboxy-N-(2-(methacryloyloxy)ethyl)-N,N-dimethylpentan-1-aminium bromide]",increase of DVC relative to UPE resin control,[1]; 10 mass percent in UPE resin,2%
same,increase of DVC relative to UPE resin control,[1]; 20 mass percent in UPE resin,3%
same,effect on hydrophobic-hydrophilic properties of the copolymer,[2]; 10 and 20 mass percent in UPE resin,did not alter the hydrophobic-hydrophilic properties
same,decrease of mean number of live CCL1 cells compared to all lower concentrations,"[3]; 10.6 mmol/L, 72 h exposure",≤ 2.5 fold
same,effect of monomer concentration on CCL1 cell viability,"[3]; 24 h exposure, ≤10.6 mmol/L",insignificant
same,effect of monomer concentration on CCL1 cell viability,[3]; [6],exerted a main effect
same,dead HGF cells,"[4]; 0.08 mmol/L, 24 h",102.1 ± 0.9 % control
same,live HGF cells,"[4]; 0.08 mmol/L, 24 h",92.8 ± 11.3 % control
same,dead HGF cells,"[4]; 0.08 mmol/L, 72 h",99.5 ± 8.0 % control
same,live HGF cells,"[4]; 0.08 mmol/L, 72 h",121.6 ± 12.6 % control
same,dead HGF cells,"[4]; 0.17 mmol/L, 24 h",99.1 ± 1.7 % control
same,live HGF cells,"[4]; 0.17 mmol/L, 24 h",77.3 ± 15.9 % control
same,dead HGF cells,"[4]; 0.17 mmol/L, 72 h",98.8 ± 9.1 % control
same,live HGF cells,"[4]; 0.17 mmol/L, 72 h",95.1 ± 14.4 % control
same,dead HGF cells,"[4]; 0.33 mmol/L, 24 h",103.5 ± 3.7 % control
same,live HGF cells,"[4]; 0.33 mmol/L, 24 h",110.4 ± 9.7 % control
same,dead HGF cells,"[4]; 0.33 mmol/L, 72 h",102.0 ± 12.8 % control
same,live HGF cells,"[4]; 0.33 mmol/L, 72 h",116.8 ± 12.3 % control
same,dead HGF cells,"[4]; 0.66 mmol/L, 24 h",101.5 ± 2.5 % control
same,live HGF cells,"[4]; 0.66 mmol/L, 24 h",107.4 ± 4.7 % control
same,dead HGF cells,"[4]; 0.66 mmol/L, 72 h",92.1 ± 8.7 % control
same,live HGF cells,"[4]; 0.66 mmol/L, 72 h",133.0 ± 8.4 % control
same,dead HGF cells,"[4]; 1.33 mmol/L, 24 h",110.9 ± 7.1 % control
same,live HGF cells,"[4]; 1.33 mmol/L, 24 h",121.8 ± 8.2 % control
same,dead HGF cells,"[4]; 1.33 mmol/L, 72 h",89.5 ± 8.9 % control
same,live HGF cells,"[4]; 1.33 mmol/L, 72 h",107.6 ± 6.9 % control
same,dead HGF cells,"[4]; 2.65 mmol/L, 24 h",100.4 ± 1.0 % control
same,live HGF cells,"[4]; 2.65 mmol/L, 24 h",111.7 ± 10.0 % control
same,dead HGF cells,"[4]; 2.65 mmol/L, 72 h",104.0 ± 17.1 % control
same,live HGF cells,"[4]; 2.65 mmol/L, 72 h",107.8 ± 4.0 % control
same,dead HGF cells,"[4]; 5.3 mmol/L, 24 h",102.7 ± 2.6 % control
same,live HGF cells,"[4]; 5.3 mmol/L, 24 h",108.8 ± 14.8 % control
same,dead HGF cells,"[4]; 5.3 mmol/L, 72 h",88.9 ± 6.8 % control
same,live HGF cells,"[4]; 5.3 mmol/L, 72 h",130.5 ± 9.2 % control
same,dead HGF cells,"[4]; 10.6 mmol/L, 24 h",100.9 ± 1.7 % control
same,live HGF cells,"[4]; 10.6 mmol/L, 24 h",92.4 ± 10.8 % control
same,dead HGF cells,"[4]; 10.6 mmol/L, 72 h",90.3 ± 11.6 % control
same,live HGF cells,"[4]; 10.6 mmol/L, 72 h",103.7 ± 7.8 % control
same,"effect of exposure time on HGF live cells, difference of means","[4]; 24 h vs 72 h, regardless of concentration",10.4%
same,effect of monomer concentration on HGF cell viability,[4],monomer concentration affected
same,"number of live HGF cells in monomer-treated groups, median of least square means","[4]; ≤10.6 mmol/L, 24 h or 72 h, % control",111.7%
same,effect of monomer concentration on CCL1 metabolic activity,CCL1 cells,A main effect
same,effect on metabolic activity of HGF cells,[5],Neither AMadh1 concentration nor time of exposure significantly affected the metabolic activity
